For data set [1], the system named is bone-marrow. In words: Bone-marrow toxicity.
Data set [2] can be described thus: Acute toxicity in male CD2 F1 mice with autopsy. It is filed as in vivo, mouse. The settings on record: 100 and 1000 mg/kg i.p. The source says:
(§1) Autopsy of the animals after 28 days gave no findings. […] The result of autopsy (among others liver, kidneys, spleen, brain, bone marrow) on day 15 after the onset of treatment gave no finding.

Data set [3] relates to mammary tumor cell-line 1C32. Nature of the data set: Cytotoxic activity in vitro, mammary tumor cell line 1C32. It is filed as cell-based, rat. From the text: (§2) This was confirmed by measuring the biological efficiency, namely the cytotoxic activity in vitro by studies done on a murine retrothelial sarcoma, and on rat mammary tumor cell lines, and on Eb/Esb cell lines.
Data set [4] has as its system mammary tumor cell-line 1C39. Nature of the data set: Cytotoxic activity in vitro, mammary tumor cell line 1C39. In kind it is cell-based, rat.
Description: as §2

In data set [5] the test system is mammary tumor cell-line 1C29. Nature of the data set: Cytotoxic activity in vitro, mammary tumor cell line 1C29. In kind it is cell-based, rat.
Description: as §2

Data set [6] deals with glycosidases. Nature of the data set: Enzymatic cleavage of the glycosidic bond by glycosidases (release of IPM). Particulars: glycosidases / enzyme mixtures, TLC, NBP detection. In kind it is biochemical. Here is the method: On incubation of the glycosides in HEPES or water with corresponding glycosidases a rapid cleavage of the glycosidic bond could be observed.
(§3) Because each in 50 and 51 two glycosidic bonds are present, showing the same (51β) or a different configuration (f.i. 50α), along with single glucosidases enzyme mixtures were used to check the enzymatic release of IPM. The enzymatic cieavage of the pure anomeric conjugates 50 and 51 was monitored by TLC; intact conjugates or the cleavage products 28α, 28β or IPM were detected with NBP.

Data set [7] can be described thus: Stability in methanolic solution (TLC analysis). In kind it is physicochemical. Particulars: room temperature.
The subject of data set [8] is β-glucosidase. In words: Cleavage by a single enzyme, β-glucosidase (TLC). In kind it is biochemical.
Description: as §3

Data set [9] is described as follows: Toxicity in BD6 rats with transplanted 1C32 tumor with autopsy. It is filed as in vivo, rat.
Description: as §1

Data set [10] relates to retrothelial sarcoma cells.

`O=P(NCCCl)(NCCCl)O[C@@H]1O[C@H](CO)[C@@H](O)[C@H](O)[C@H]1O` [Compound 28β, β-D-Glucopyranosyl N,N'-di-(2-chloroethyl) phosphoric acid diamide]: the bone-marrow toxicity result in data set [1] is given as “very low”. Moreover, the acute toxicity result in data set [2] is recorded as “no acute toxicity could be observed”. The autopsy entry in data set [2] (after 28 days) was “no findings”.

On to `O=P(NCCCl)(NCCCl)O[C@@H]1O[C@H](CO)[C@H](O)[C@H](O)[C@H]1O` [Compound 29β, β-D-Galactopyranosyl N,N'-di-(2-chloroethyl) phosphoric acid diamide], for which the “most effective agent (cytotoxic activity)” value in [3], in [4] and in data set [5] was “always the most effective agent” throughout.

Regarding `O=P(NCCCl)(NCCCl)OC1O[C@H](CO)[C@@H](O[C@@H]2O[C@H](CO)[C@H](O)[C@H](O)[C@H]2O)[C@H](O)[C@H]1O` (some centres unmarked) [Compound 50], the “cleavage required for the release of IPM” value in data set [6] was “cleavage of two different glycosidic bonds was required”. Besides, the stability result in data set [7] is “stable”.

`O=P(NCCCl)(NCCCl)OC1O[C@H](CO)[C@@H](O[C@@H]2O[C@H](CO)[C@@H](O)[C@H](O)[C@H]2O)[C@H](O)[C@H]1O` (some centres unmarked) [Compound 51]: in [7], the stability result is “stable”.

In the case of `O=P(NCCCl)(NCCCl)O[C@H]1O[C@H](CO)[C@@H](O[C@@H]2O[C@H](CO)[C@@H](O)[C@H](O)[C@H]2O)[C@H](O)[C@H]1O` [Compound 51α, 4-O-(β-D-glucopyranosyl) α-D-glucopyranosyl N,N'-di-(2-chlorethyl) phosphoric acid diamide], the “cleavage required for the release of IPM” value in data set [6] is reported as “cleavage of two different glycosidic bonds was required”.

In the case of `O=P(NCCCl)(NCCCl)O[C@@H]1O[C@H](CO)[C@@H](O[C@@H]2O[C@H](CO)[C@@H](O)[C@H](O)[C@H]2O)[C@H](O)[C@H]1O` [Compound 51β, 4-O-(β-D-Glucopyranosyl) β-D-glucopyranosyl N,N'-di-(2-chloroethyl) phosphoric acid diamide], in data set [8], the “complete cleavage by a single enzyme” value was “could be completely cleaved by a single enzyme”.

As to `O=P(NCCCl)(NCCCl)OC1O[C@H](CO)[C@H](O)[C@H](O)[C@H]1O` (some centres unmarked) [Gal-IPM], in data set [9] (BD6 rats with transplanted 1C32 tumor, 5-122.5 and 5-245 mg/kg, resp.), the toxicity result is given as “did not show any toxicity”. Moreover, the autopsy result in data set [9] (day 15 after onset of treatment, liver, kidneys, spleen, brain, bone marrow) is listed as “no finding”.

With `O=P(O)(NCCCl)NCCCl` [IPM], in [10], the cytotoxicity entry is on record as “cytotoxicity”.

The record behind these values is patent publication US5622936A (priority 1988, dated 1997).
